Measurements taken from patent US20230278972A1, “SUBSTITUTED HALOALKYL SULFONANILIDE HERBICIDES” (FMC Corporation, priority 2020, published 2023).

Assays:
Type in all cases: in vivo
[1] = tested on: Foxtail, Giant (giant foxtail, Setaria faberi); test: Test A1 preemergence, Foxtail, Giant
Summary of the method: (§1)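 Both timings started from seed in a loam-sand blend. Preemergence pots got a directed soil application immediately; postemergence pots were sprayed when seedlings had one or two leaves and stood 2–10 cm. Each compound was prepared in a non-phytotoxic solvent plus surfactant.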

[2] = tested on: blackgrass (Alopecurus myosuroides); test: Test A1 preemergence, blackgrass
Summary of the method: as §1

[3] = tested on: ducksalad (Heteranthera limosa); test: Test B1 flooded paddy test, ducksalad; conditions: 250 g ai/ha, Flood, applied to paddy water, 2-leaf stage, visually evaluated after 10 to 14 days
Excerpt: (§2) A dash (-) response means no test result.

[4] = tested on: barnyardgrass (Echinochloa crus-galli); test: Test B1 flooded paddy test, barnyardgrass; conditions: 250 g ai/ha, Flood, applied to paddy water, 2-leaf stage, visually evaluated after 10 to 14 days
Excerpt: as §2

[5] = tested on: blackgrass (Alopecurus myosuroides); test: Test A1 postemergence, blackgrass; conditions: Postemergence, 0 to 100 scale (0 no effect, 100 complete control)
Summary of the method: as §1

[6] = tested on: goosegrass (Eleusine indica); test: Test A1 postemergence, goosegrass; conditions: Postemergence
Summary of the method: as §1

[7] = tested on: corn (Zea mays); test: Test A1 preemergence, corn
Summary of the method: (§3)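 Postemergence species (ragweed, Palmer pigweed, wild oat) were sprayed at one- to two-leaf stage, 2 to 10 cm tall. Corn was treated preemergence by directed soil spray. Both used a loam soil/sand blend and compounds in a non-phytotoxic solvent mixture with surfactant.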

[8] = tested on: ragweed (common ragweed, Ambrosia artemisiifolia); test: Test A1 postemergence, ragweed; conditions: Postemergence
Summary of the method: as §3

[9] = tested on: Pigweed, Palmer (palmer amaranth, palmer pigweed, Amaranthus palmeri); test: Test A1 preemergence, Pigweed, Palmer
Summary of the method: as §1

[10] = tested on: corn (Zea mays); test: Test A1 postemergence, corn; conditions: Postemergence
Summary of the method: as §1

[11] = tested on: ragweed (common ragweed, Ambrosia artemisiifolia); test: Test A1 preemergence, ragweed
Summary of the method: as §1

[12] = tested on: goosegrass (Eleusine indica); test: Test A1 preemergence, goosegrass
Summary of the method: as §1

[13] = tested on: Oat, Wild (wild oat, Avena fatua); test: Test A1 postemergence, Oat, Wild; conditions: Postemergence
Summary of the method: as §3

[14] = tested on: wheat (Triticum aestivum); test: Test A1 postemergence, wheat; conditions: Postemergence
Summary of the method: as §1

[15] = tested on: horseweed (Erigeron canadensis); test: Test A1 postemergence, horseweed; conditions: Postemergence
Summary of the method: as §1

[16] = tested on: Oat, Wild (wild oat, Avena fatua); test: Test A1 preemergence, Oat, Wild
Summary of the method: as §1

[17] = tested on: kochia (Bassia scoparia); test: Test A1 postemergence, kochia; conditions: Postemergence
Summary of the method: as §1

[18] = tested on: soybean (Glycine max); test: Test A1 postemergence, soybean; conditions: Postemergence
Summary of the method: as §1

[19] = tested on: galium (catchweed bedstraw, Galium aparine); test: Test A1 postemergence, galium; conditions: Postemergence
Summary of the method: as §1

[20] = tested on: Ryegrass, Italian (Italian ryegrass, Lolium multiflorum); test: Test A1 preemergence, Ryegrass, Italian
Summary of the method: as §1

[21] = tested on: wheat (Triticum aestivum); test: Test A1 preemergence, wheat
Summary of the method: as §1

[22] = tested on: Pigweed, Palmer (palmer amaranth, palmer pigweed, Amaranthus palmeri); test: Test A1 postemergence, Pigweed, Palmer; conditions: Postemergence
Summary of the method: as §3

[23] = tested on: Foxtail, Giant (giant foxtail, Setaria faberi); test: Test A1 postemergence, Foxtail, Giant; conditions: Postemergence
Summary of the method: as §1

[24] = tested on: Ryegrass, Italian (Italian ryegrass, Lolium multiflorum); test: Test A1 postemergence, Ryegrass, Italian; conditions: Postemergence
Summary of the method: as §1

[25] = tested on: rice (Oryza sativa); test: Test B1 flooded paddy test, rice; conditions: 250 g ai/ha, Flood, applied to paddy water, 2-leaf stage, visually evaluated after 10 to 14 days
Excerpt: as §2

[26] = tested on: soybean (Glycine max); test: Test A1 preemergence, soybean
Summary of the method: as §1

[27] = tested on: kochia (Bassia scoparia); test: Test A1 preemergence, kochia
Summary of the method: as §1

[28] = 31 g ai/ha, 0 to 100 scale (0 no effect, 100 complete control)
[29] = 125 g ai/ha, 0 to 100 scale, 0 no effect, 100 complete control
[30] = 31 g ai/ha, 0 to 100 scale (0 no effect, 100 complete control), 10 days

Structure (SMILES): CCOC(=O)N(c1cc(C(=O)N2CCCCC2)c(C)c(C)c1C)S(=O)(=O)C(F)(F)F [Compound 330, Ethyl N-[(trifluoromethyl)sulfonyl]-N-[2,3,4-trimethyl-5-(1-piperidinylcarbonyl)phenyl]carbamate]
- Plant response rating, Foxtail, Giant [1, 28]: 80
- Plant response rating, Foxtail, Giant [1, 29]: 100
- Plant response rating, Blackgrass [2, 28]: 0
- Plant response rating, Blackgrass [2, 29]: 30
- Plant response rating, Ducksalad (0 to 100 scale, 0 is no effect, 100 is complete control) [3]: 95
- Plant response rating, Barnyardgrass (0 to 100 scale, 0 is no effect, 100 is complete control) [4]: 95
- Plant response rating, Blackgrass ([5]; 31 g ai/ha, 10 days): 0
- Plant response rating, Blackgrass ([5]; 125 g ai/ha): 40
- Plant response rating, Goosegrass [6, 30]: 0
- Plant response rating, Goosegrass ([6]; 125 g ai/ha, 0 to 100 scale): 40
- Plant response rating, Corn [7, 28]: 0
- Plant response rating, Corn [7, 29]: 0
- Plant response rating, Ragweed [8, 30]: 50
- Plant response rating, Ragweed ([8]; 125 g ai/ha, 0 to 100 scale): 80
- Plant response rating, Pigweed, Palmer [9, 28]: 70
- Plant response rating, Pigweed, Palmer [9, 29]: 80
- Plant response rating, Corn [10, 30]: 0
- Plant response rating, Corn ([10]; 125 g ai/ha, 0 to 100 scale): 10
- Plant response rating, Ragweed [11, 28]: 40
- Plant response rating, Ragweed [11, 29]: 70
- Plant response rating, Goosegrass [12, 28]: 40
- Plant response rating, Goosegrass [12, 29]: 100
- Plant response rating, Oat, Wild [13, 30]: 0
- Plant response rating, Oat, Wild ([13]; 125 g ai/ha, 0 to 100 scale): 10
- Plant response rating, Wheat [14, 30]: 0
- Plant response rating, Wheat ([14]; 125 g ai/ha, 0 to 100 scale): 30
- Plant response rating, Horseweed [15, 30]: 80
- Plant response rating, Horseweed ([15]; 125 g ai/ha, 0 to 100 scale): 90
- Plant response rating, Oat, Wild [16, 28]: 0
- Plant response rating, Oat, Wild [16, 29]: 20
- Plant response rating, Kochia [17, 30]: 10
- Plant response rating, Kochia ([17]; 125 g ai/ha, 0 to 100 scale): 50
- Plant response rating, Soybean [18, 30]: 90
- Plant response rating, Soybean ([18]; 125 g ai/ha, 0 to 100 scale): 80
- Plant response rating, Galium [19, 30]: 50
- Plant response rating, Galium ([19]; 125 g ai/ha, 0 to 100 scale): 60
- Plant response rating, Ryegrass, Italian [20, 28]: 0
- Plant response rating, Ryegrass, Italian [20, 29]: 90
- Plant response rating, Wheat [21, 28]: 0
- Plant response rating, Wheat [21, 29]: 30
- Plant response rating, Pigweed, Palmer [22, 30]: 0
- Plant response rating, Pigweed, Palmer ([22]; 125 g ai/ha, 0 to 100 scale): 50
- Plant response rating, Foxtail, Giant [23, 30]: 20
- Plant response rating, Foxtail, Giant ([23]; 125 g ai/ha, 0 to 100 scale): 80
- Plant response rating, Ryegrass, Italian [24, 30]: 0
- Plant response rating, Ryegrass, Italian ([24]; 125 g ai/ha, 0 to 100 scale): 0
- Plant response rating, Rice (0 to 100 scale, 0 is no effect, 100 is complete control) [25]: 0
- Plant response rating, Soybean [26, 28]: 0
- Plant response rating, Soybean [26, 29]: 30
- Plant response rating, Kochia [27, 28]: 10
- Plant response rating, Kochia [27, 29]: 40

Structure (SMILES): COC1CCCN(C(=O)c2cc(NS(=O)(=O)C(F)(F)F)c(Cl)c(F)c2C)C1 (stereo not drawn) [Compound 334]
- Plant response rating, Foxtail, Giant [1, 28]: 40
- Plant response rating, Foxtail, Giant [1, 29]: 70
- Plant response rating, Blackgrass [2, 28]: 10
- Plant response rating, Blackgrass [2, 29]: 10
- Plant response rating, Ducksalad (0 to 100 scale, 0 is no effect, 100 is complete control) [3]: 60
- Plant response rating, Barnyardgrass (0 to 100 scale, 0 is no effect, 100 is complete control) [4]: 15
- Plant response rating, Blackgrass ([5]; 31 g ai/ha, 10 days): 0
- Plant response rating, Blackgrass ([5]; 125 g ai/ha): 0
- Plant response rating, Goosegrass [6, 30]: 0
- Plant response rating, Goosegrass ([6]; 125 g ai/ha, 0 to 100 scale): 0
- Plant response rating, Corn [7, 28]: 0
- Plant response rating, Corn [7, 29]: 0
- Plant response rating, Ragweed [8, 30]: 0
- Plant response rating, Ragweed ([8]; 125 g ai/ha, 0 to 100 scale): 50
- Plant response rating, Pigweed, Palmer [9, 28]: 20
- Plant response rating, Pigweed, Palmer [9, 29]: 70
- Plant response rating, Corn [10, 30]: 0
- Plant response rating, Corn ([10]; 125 g ai/ha, 0 to 100 scale): 0
- Plant response rating, Ragweed [11, 28]: 0
- Plant response rating, Ragweed [11, 29]: 50
- Plant response rating, Goosegrass [12, 28]: 70
- Plant response rating, Goosegrass [12, 29]: 90
- Plant response rating, Oat, Wild [13, 30]: 0
- Plant response rating, Oat, Wild ([13]; 125 g ai/ha, 0 to 100 scale): 0
- Plant response rating, Wheat [14, 30]: 0
- Plant response rating, Wheat ([14]; 125 g ai/ha, 0 to 100 scale): 0
- Plant response rating, Horseweed [15, 30]: 0
- Plant response rating, Horseweed ([15]; 125 g ai/ha, 0 to 100 scale): 30
- Plant response rating, Oat, Wild [16, 28]: 10
- Plant response rating, Oat, Wild [16, 29]: 20
- Plant response rating, Kochia [17, 30]: 10
- Plant response rating, Kochia ([17]; 125 g ai/ha, 0 to 100 scale): 40
- Plant response rating, Soybean [18, 30]: 20
- Plant response rating, Soybean ([18]; 125 g ai/ha, 0 to 100 scale): 40
- Plant response rating, Galium [19, 30]: 60
- Plant response rating, Galium ([19]; 125 g ai/ha, 0 to 100 scale): 60
- Plant response rating, Ryegrass, Italian [20, 28]: 30
- Plant response rating, Ryegrass, Italian [20, 29]: 50
- Plant response rating, Wheat [21, 28]: 0
- Plant response rating, Wheat [21, 29]: 0
- Plant response rating, Pigweed, Palmer [22, 30]: 10
- Plant response rating, Pigweed, Palmer ([22]; 125 g ai/ha, 0 to 100 scale): 50
- Plant response rating, Foxtail, Giant [23, 30]: 0
- Plant response rating, Foxtail, Giant ([23]; 125 g ai/ha, 0 to 100 scale): 0
- Plant response rating, Ryegrass, Italian [24, 30]: 0
- Plant response rating, Ryegrass, Italian ([24]; 125 g ai/ha, 0 to 100 scale): 0
- Plant response rating, Rice (0 to 100 scale, 0 is no effect, 100 is complete control) [25]: 10
- Plant response rating, Soybean [26, 28]: 0
- Plant response rating, Soybean [26, 29]: 30
- Plant response rating, Kochia [27, 28]: 0
- Plant response rating, Kochia [27, 29]: 20
